Experimental data as given in patent US20250152599A1 (priority 2020, published 2025).
Where two headings read alike, the source gives them in different places.

Legend:
HCoV 229E [1] = system: HCoV 229E
MRC5 cells = conditions: human
novel coronavirus = assay: Inhibitory effect of PI0101 on the novel coronavirus, 96-well plate, 76 hours; format: cell-based, SARS-CoV-2; conditions: Severe acute respiratory syndrome coronavirus 2, novel coronavirus 100 TCID50/well
PI4KIIIα = PI4KIIIα (Homo sapiens, UniProt P42356); conditions: read-out: IC50 of inhibitory effect on PI4KIIIα; cited from earlier work
Sequence of PI4KIIIα (P42356 whole entry): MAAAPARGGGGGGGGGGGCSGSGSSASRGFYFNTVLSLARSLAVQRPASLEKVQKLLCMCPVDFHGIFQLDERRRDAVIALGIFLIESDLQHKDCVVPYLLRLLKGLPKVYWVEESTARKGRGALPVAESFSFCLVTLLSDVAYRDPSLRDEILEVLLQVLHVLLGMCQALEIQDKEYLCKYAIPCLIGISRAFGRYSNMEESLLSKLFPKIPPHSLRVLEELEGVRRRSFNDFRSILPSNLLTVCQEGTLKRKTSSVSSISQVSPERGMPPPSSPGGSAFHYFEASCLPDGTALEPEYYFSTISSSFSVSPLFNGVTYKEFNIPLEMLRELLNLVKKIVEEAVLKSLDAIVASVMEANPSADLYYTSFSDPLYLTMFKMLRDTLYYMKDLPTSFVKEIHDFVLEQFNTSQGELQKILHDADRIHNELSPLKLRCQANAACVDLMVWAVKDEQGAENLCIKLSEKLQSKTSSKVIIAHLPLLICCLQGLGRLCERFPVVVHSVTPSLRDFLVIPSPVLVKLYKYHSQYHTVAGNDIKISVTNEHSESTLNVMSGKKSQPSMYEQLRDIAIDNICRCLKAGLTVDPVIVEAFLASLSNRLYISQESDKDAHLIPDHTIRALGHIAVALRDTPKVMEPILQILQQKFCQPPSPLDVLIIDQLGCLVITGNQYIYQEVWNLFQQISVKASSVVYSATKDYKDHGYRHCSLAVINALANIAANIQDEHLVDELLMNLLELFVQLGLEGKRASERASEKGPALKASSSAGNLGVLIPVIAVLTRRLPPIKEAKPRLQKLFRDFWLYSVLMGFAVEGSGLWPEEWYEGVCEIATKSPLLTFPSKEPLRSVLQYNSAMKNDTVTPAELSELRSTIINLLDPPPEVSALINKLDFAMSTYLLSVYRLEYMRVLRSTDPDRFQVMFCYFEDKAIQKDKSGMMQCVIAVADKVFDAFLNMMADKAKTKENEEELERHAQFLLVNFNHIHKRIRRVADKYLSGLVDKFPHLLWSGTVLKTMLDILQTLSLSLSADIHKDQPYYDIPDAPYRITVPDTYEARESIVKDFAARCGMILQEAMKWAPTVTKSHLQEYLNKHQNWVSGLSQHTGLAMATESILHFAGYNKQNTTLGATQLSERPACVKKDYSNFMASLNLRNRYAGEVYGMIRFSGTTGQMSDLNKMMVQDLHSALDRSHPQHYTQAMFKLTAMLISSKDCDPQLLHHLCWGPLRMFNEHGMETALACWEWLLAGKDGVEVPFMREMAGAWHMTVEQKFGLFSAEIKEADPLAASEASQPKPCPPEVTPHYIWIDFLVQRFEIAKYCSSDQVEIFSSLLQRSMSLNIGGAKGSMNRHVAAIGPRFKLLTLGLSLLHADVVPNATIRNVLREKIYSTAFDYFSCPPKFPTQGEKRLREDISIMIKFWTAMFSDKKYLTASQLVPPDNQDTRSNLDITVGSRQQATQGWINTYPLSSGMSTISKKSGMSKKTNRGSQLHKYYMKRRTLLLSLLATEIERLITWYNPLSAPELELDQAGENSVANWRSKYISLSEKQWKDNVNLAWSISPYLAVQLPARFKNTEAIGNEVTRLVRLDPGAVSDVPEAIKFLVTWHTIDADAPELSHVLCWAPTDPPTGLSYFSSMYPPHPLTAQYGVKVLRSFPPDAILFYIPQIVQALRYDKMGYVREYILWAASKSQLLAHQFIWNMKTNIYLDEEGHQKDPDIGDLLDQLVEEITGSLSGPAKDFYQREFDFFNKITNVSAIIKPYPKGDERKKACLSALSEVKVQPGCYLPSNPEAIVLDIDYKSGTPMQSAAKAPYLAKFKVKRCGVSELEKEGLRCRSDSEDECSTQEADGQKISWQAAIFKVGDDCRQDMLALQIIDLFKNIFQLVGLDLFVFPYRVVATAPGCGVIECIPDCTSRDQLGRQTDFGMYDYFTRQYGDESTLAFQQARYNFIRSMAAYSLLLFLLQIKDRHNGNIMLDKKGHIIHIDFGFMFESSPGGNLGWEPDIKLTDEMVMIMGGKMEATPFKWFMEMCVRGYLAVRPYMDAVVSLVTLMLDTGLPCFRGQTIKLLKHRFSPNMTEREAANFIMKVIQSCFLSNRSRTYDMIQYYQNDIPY

in vitro [2] = assay: in vitro
in vitro [3] = conditions: human
HCoV 229E [4] = assay: microbe, parasite or virus in culture; conditions: unidentified human coronavirus
[5] = system: novel coronavirus (SARS-CoV-2); assay: microbe, parasite or virus in culture; format: cell-based; conditions: for EC50: Severe acute respiratory syndrome coronavirus 2, Vero, read-out: EC50 for inhibiting the novel coronavirus
Vero cells = conditions: for CC10: African green monkey
in vitro [6] = conditions: African green monkey

SMILES: O=[As]c1ccc(NS(=O)(=O)c2ccc(C(F)(F)F)cc2)cc1 (stereo not drawn) [YL-11]
- EC50 (HCoV 229E [1]): 2.1 µM
- SI (CC50/EC50) (HCoV 229E [1]): 3.03
- CC50 (MRC5 cells): 6.37 µM

SMILES: COc1ccc2c(O[C@@H]3C[C@H]4C(=O)N[C@]5(C(=O)NS(=O)(=O)C6CC6)C[C@H]5/C=C\CCCCN(C)C(=O)[C@@H]4C3)cc(-c3nc(C(C)C)cs3)nc2c1C [PI0101, Simeprevir]
- EC50 (novel coronavirus): 3.85 µM
- SI (CC50/EC50) (HCoV 229E [1]; the second test): 2.48
- IC50 (PI4KIIIα): 0.2 µM
- CC50 (in vitro [2]): > 10 µM
- CC50 (in vitro [3]): 8.46 µM
- EC50 (HCoV 229E [4]; MRC5, 72 h): 3.41 µM

SMILES: CCC(CC)COC(=O)[C@H](C)N[P@](=O)(OC[C@H]1O[C@@](C#N)(c2ccc3c(N)ncnn23)[C@H](O)[C@@H]1O)Oc1ccccc1 [Remdesivir]
- EC50 [5]: 0.52 µM
- CC10 (Vero cells): 55 µM
- SI (CC50/EC50) (HCoV 229E [1]; the first test): >3785.01
- SI (CC50/EC50) (HCoV 229E [1]; the second test): 2338.60
- CC50 (MRC5 cells): 30.7 µM
- CC50 (in vitro [6]): 208 µM
- viability (in vitro [6]): > 90%
- EC50 (HCoV 229E [4]; MRC5): 0.0264 µM

SMILES: COc1ccc(S(=O)(=O)Nc2ccc([As]=O)cc2)cc1 (stereo not drawn) [YL-10]
- EC50 (HCoV 229E [1]): 3.95 µM
- SI (CC50/EC50) (HCoV 229E [1]): 3.55
- CC50 (MRC5 cells): 14 µM

SMILES: O=[As]c1ccc(NS(=O)(=O)c2ccc(F)cc2)cc1 (stereo not drawn) [YL-09]
- CC50 (MRC5 cells): 13.9 µM

SMILES: CCN(CC)CCCC(C)Nc1ccnc2cc(Cl)ccc12 (stereo not drawn) [Chloroquine phosphate]
- EC50 [5]: 50 µM
- CC10 (Vero cells): 120 µM

SMILES: O=[As]c1ccc(NC(=O)CCc2ccccc2)cc1 (stereo not drawn) [YL-05]
- CC50 (in vitro [3]): > 0.8 µM
- EC50 (HCoV 229E [4]; MRC5, 72 h): > 0.2 µM

SMILES: CC(=O)Nc1nc(C)c(-c2ccc(Cl)c(S(=O)(=O)NCCO)c2)s1 [PIK-93]
- inhibitory effect on the novel coronavirus [5]: no significant inhibitory effect
- toxic effect on Vero cells (Vero cells): no significant toxic effect
